± gives the expanded uncertainty stated by the source.
How the values were obtained:
[1] = refractive index (Na D-line) (dimensionless); settings: 293.15 K; 101.33 kPa; Liquid
[2] = 293.15 K; 101.33 kPa; Liquid

Row | refractive index [1] | mass density [2] | Compound
1 | 1.5336 ± 0.0013 | 1027.93 ± 0.46 kg/m3 | CC(=O)c1ccccc1 [acetophenone]
2 | 1.3845 ± 0.0012 | 974.65 ± 0.29 kg/m3 | CCOC(=O)OCC [diethyl carbonate]
3 | 1.4178 ± 0.0013 | 818.84 ± 0.75 kg/m3 | CCCCCCO [hexan-1-ol]

From the NIST ThermoML archive (doi:10.1021/je600519p)
